From patent US9029553B2, “2-anilino nicotinyl linked 2-amino benzothiazole conjugates and process for the preparation thereof” (Council of Scientific & Industrial Research, priority 2011, dated 2015)

Columns and labels:
Test in all cases: SRB percentage growth inhibition (NCI protocol)
Assay type in all cases: cell-based
502713 = conditions: Homo sapiens, 48 hrs exposure
Protocol: (§1) 2-Anilino nicotinyl linked 2-amino benzothiazoles conjugates of formula 4-8 have been tested against ten and eleven human cancer cell lines for 10 and 1 μM respectively derived from nine cancer types (leukemia, non-small cell lung cancer, colon cancer, CNS cancer, melanoma, ovarian cancer, renal cancer, prostate cancer and breast cancer) as per NCI protocol. For each compound, percentage of growth inhibition was calculated for individual cell lines at a minimum of two concentrations (1 and 10 μM). A protocol of 48 hrs continuous drug exposure was used, and a sulforhodamine B (SRB) protein assay was used to estimate cell viability or growth. The percentage of growth inhibition compared with the control was calculated in table 1 and table 2.

HCT-15 = conditions: Homo sapiens, 48 hrs exposure
Protocol: as §1

IMR-32 = conditions: Homo sapiens, 10 μM, 48 hrs exposure
Protocol: as §1

OVCAR-5 = conditions: Homo sapiens, 10 μM, 48 hrs exposure
Protocol: as §1

SK-NS-H = conditions: Homo sapiens, SK-N-SH, 48 hrs exposure
Protocol: as §1

SiHa = conditions: Homo sapiens, 48 hrs exposure
Protocol: as §1

Sw-620 = conditions: Homo sapiens, 48 hrs exposure
Protocol: as §1

A549 = conditions: Homo sapiens, 48 hrs exposure
Protocol: as §1

DU145 = conditions: Homo sapiens, DU-145, 48 hrs exposure
Protocol: as §1

Compound	inhibition at 10 µM 502713 [%]	inhibition at 1 µM (HCT-15; 1 μM) [%]	inhibition at 10 µM (HCT-15) [%]	inhibition at 10 µM (IMR-32) [%]	inhibition at 10 µM (OVCAR-5) [%]	inhibition at 10 µM (SK-NS-H) [%]	inhibition at 10 µM (SiHa) [%]	inhibition at 1 µM (Sw-620; 1 μM) [%]	inhibition at 10 µM (Sw-620) [%]	inhibition at 1 µM (A549; 1 μM) [%]	inhibition at 10 µM (A549; 10 μM) [%]	inhibition at 1 µM (DU145; 1 μM) [%]	inhibition at 10 µM (DU145; 10 μM) [%]
O=c1[nH]cc(F)c(=O)[nH]1 [Compound 5-FU, 5-fluorouracil, reference compound]	21	46	44	71	22	7	44	44	76				
CC(=O)O[C@H]1C(=O)[C@@]2(C)[C@H]([C@H](OC(=O)c3ccccc3)[C@]3(O)C[C@H](OC(=O)[C@H](O)[C@@H](NC(=O)c4ccccc4)c4ccccc4)C(C)=C1C3(C)C)[C@]1(OC(C)=O)CO[C@@H]1C[C@@H]2O [Pac, paclitaxel, reference compound]	59		37	46	51	20	49		73	34	41	44	42
